Structures are written as SMILES.

The values that follow come from US11912693B2, “Compounds for modulating S1P1 activity and methods of using the same” (TREVENA, INC., priority 2017, dated 2024).

Experiment [1] deals with T1, human sphingosine-1-phosphate receptor 1 (S1P1) (Homo sapiens (Human), UniProt P21453). The experiment in a line: Inhibition of cAMP production (HTRF cAMP HiRange), S1P1 CHO-K1 cells. The settings on record: for Emax: CHO-K1, efficacy (SPAN) normalized to fingolimod, read-out: hS1P1 cAMP SPAN. The format is cell-based. The gist of the method:
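CHO-K1 cells stably co-expressing human S1P1 (C-terminal Prolink tag) and EA-β-arrestin2 were grown in AssayComplete Media 6 at 37° C. and 5% CO2, plated, and incubated overnight. Agonist-driven inhibition of intracellular cAMP was read by TR-FRET with the HTRF cAMP HiRange kit on a PheraStar reader. Potency is pEC50, and efficacy (SPAN) is normalized to fingolimod.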
Target sequence in this assay (P21453 whole entry, looked up): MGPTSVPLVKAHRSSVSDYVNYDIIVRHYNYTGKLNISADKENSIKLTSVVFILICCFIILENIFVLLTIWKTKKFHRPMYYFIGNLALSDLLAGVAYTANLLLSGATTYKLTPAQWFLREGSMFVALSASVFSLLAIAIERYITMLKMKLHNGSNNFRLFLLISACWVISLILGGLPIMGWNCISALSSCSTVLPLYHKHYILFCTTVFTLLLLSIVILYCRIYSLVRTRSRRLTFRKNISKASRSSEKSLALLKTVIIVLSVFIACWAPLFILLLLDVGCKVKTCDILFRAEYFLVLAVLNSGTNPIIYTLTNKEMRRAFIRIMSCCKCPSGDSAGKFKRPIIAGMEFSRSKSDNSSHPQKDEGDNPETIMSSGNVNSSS

Experiment [2] addresses T1, human sphingosine-1-phosphate receptor 1 (S1P1). In words: β-Arrestin2 recruitment assay (PathHunter), S1P1 CHO-K1 cells. Type of experiment: cell-based. The conditions noted are these: for Emax: CHO-K1, efficacy (SPAN) normalized to fingolimod, read-out: hS1P1 B-arrestin2 SPAN. The gist of the method:
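Enzyme-fragment complementation read-out: agonist-driven β-arrestin2 binding to ProLink-tagged human S1P1 in stable CHO-K1 cells restores β-galactosidase, measured 1 h at room temperature after a 60 min 37° C. compound incubation. Potency as pEC50, efficacy relative to fingolimod (SPAN).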
Target sequence in this assay (P21453 whole entry, looked up): as above
Target sequence in this assay (P32121 whole entry partner, looked up): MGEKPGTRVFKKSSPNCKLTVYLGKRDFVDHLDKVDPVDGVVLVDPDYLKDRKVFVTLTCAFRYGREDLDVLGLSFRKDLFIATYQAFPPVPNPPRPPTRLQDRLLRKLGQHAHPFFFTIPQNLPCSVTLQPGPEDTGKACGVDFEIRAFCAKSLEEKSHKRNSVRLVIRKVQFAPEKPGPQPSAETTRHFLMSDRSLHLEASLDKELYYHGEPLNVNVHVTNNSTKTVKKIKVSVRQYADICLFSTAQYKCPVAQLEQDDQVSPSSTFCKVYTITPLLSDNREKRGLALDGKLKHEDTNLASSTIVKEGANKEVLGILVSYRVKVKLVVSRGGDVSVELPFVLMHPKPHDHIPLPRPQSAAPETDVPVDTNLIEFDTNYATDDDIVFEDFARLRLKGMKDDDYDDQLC

[3] abbreviates: inhibition of cAMP production, S1P1 CHO-K1 cells.
The mark [4] stands for this setting: β-arrestin2 recruitment, S1P1 CHO-K1 cells.

Regarding `CC(C)c1cc(-c2nc(-c3ccc4c(c3)nnn4C(C)C)no2)ccn1` [Compound 167, 3-(1-isopropyl-1H-benzo[d][1,2,3]triazol-5-yl)-5-(2-isopropylpyridin-4-yl)-1,2,4-oxadiazole], the “hS1P1 cAMP pEC50” value in experiment [1] (setting [3]) is under 6.5. The “hS1P1 B-arrestin2 pEC50” value in experiment [2] (setting [4]) is recorded as under 5.

For `CC(C)n1nnc2cc(-c3nc(-c4ccc5ccccc5n4)no3)ccc21` [Compound 168, 2-{5-[1-(propan-2-yl)-1H-1,2,3-benzotriazol-5-yl]-1,2,4-oxadiazol-3-yl}quinoline], the Emax in experiment [1] and in experiment [2] was under 75% throughout. The “hS1P1 cAMP pEC50” value in experiment [1] (setting [3]) is under 6.5. In addition, in experiment [2] (setting [4]), the “hS1P1 B-arrestin2 pEC50” value is under 5.

With `CC(C)n1nnc2cc(-c3nc(-c4ccc(Cl)s4)no3)ccc21` [Compound 170, 5-[3-(5-chlorothiophen-2-yl)-1,2,4-oxadiazol-5-yl]-1-(propan-2-yl)-1H-1,2,3-benzotriazole], the Emax in experiment [1] and in experiment [2] was under 75% in each case. The “hS1P1 cAMP pEC50” value in experiment [1] (setting [3]) is under 6.5. Moreover, the “hS1P1 B-arrestin2 pEC50” value in experiment [2] (setting [4]) was under 5.

As for `Cc1ccccc1-c1noc(-c2ccc3c(c2)nnn3C2CC2)n1` [Compound 171, 1-cyclopropyl-5-[3-(2-methylphenyl)-1,2,4-oxadiazol-5-yl]-1H-1,2,3-benzotriazole], the “hS1P1 cAMP pEC50” value in experiment [1] (setting [3]) was over 6.5. For the same molecule, the “hS1P1 B-arrestin2 pEC50” value in experiment [2] (setting [4]) is over 5.

`Cc1ccccc1C(C)c1noc(-c2ccc3c(c2)nnn3C(C)C)n1` (stereo not drawn) [Compound 172, 5-{3-[1-(2-methylphenyl)ethyl]-1,2,4-oxadiazol-5-yl}-1-(propan-2-yl)-1H-1,2,3-benzotriazole]: the Emax in experiment [1] and in experiment [2] was under 75% in each case. For the same molecule, the “hS1P1 cAMP pEC50” value in experiment [1] (setting [3]) was under 6.5. Also, the “hS1P1 B-arrestin2 pEC50” value in experiment [2] (setting [4]) is listed as under 5.

Take `COc1ccccc1-c1noc(-c2ccc3c(c2)nnn3C2CC2)n1` [Compound 173, 1-cyclopropyl-5-[3-(2-methoxyphenyl)-1,2,4-oxadiazol-5-yl]-1H-1,2,3-benzotriazole]: the Emax in experiment [1] and in experiment [2] was over 75% throughout. Moreover, in experiment [1] (setting [3]), the “hS1P1 cAMP pEC50” value was over 6.5. The “hS1P1 B-arrestin2 pEC50” value in experiment [2] (setting [4]) was over 5.

Take `c1cc(-c2noc(-c3ccc4c(c3)nnn4C3CCCC3)n2)ccn1` [Compound 174, 1-cyclopentyl-5-[3-(pyridin-4-yl)-1,2,4-oxadiazol-5-yl]-1H-1,2,3-benzotriazole]: the Emax in experiment [1] and in experiment [2] was over 75% in each case. Also, in experiment [1] (setting [3]), the “hS1P1 cAMP pEC50” value was over 6.5. In addition, the “hS1P1 B-arrestin2 pEC50” value in experiment [2] (setting [4]) is under 5.

Consider `Cc1ccccc1-c1noc(-c2ccc3c(c2)nnn3C2CCCC2)n1` [Compound 175, 1-cyclopentyl-5-[3-(2-methylphenyl)-1,2,4-oxadiazol-5-yl]-1H-1,2,3-benzotriazole], for which the Emax in experiment [1] and in experiment [2] was over 75% each time. Further, the “hS1P1 cAMP pEC50” value in experiment [1] (setting [3]) is given as over 6.5. The “hS1P1 B-arrestin2 pEC50” value in experiment [2] (setting [4]) is over 5.

`O=C1CC2(CCCC2)Oc2ccc(-c3nc(-c4ccncc4)no3)cc21` [Compound 176, 6-[3-(pyridin-4-yl)-1,2,4-oxadiazol-5-yl]-3,4-dihydrospiro[1-benzopyran-2,1′-cyclopentane]-4-one]: the Emax was over 75% in experiment [1] and under 75% in experiment [2]. Moreover, in experiment [1] (setting [3]), the “hS1P1 cAMP pEC50” value is under 6.5. For the same molecule, the “hS1P1 B-arrestin2 pEC50” value in experiment [2] (setting [4]) is recorded as under 5.

For `CCC1(CC)CC(=O)c2cc(-c3nnc(-c4ccccc4OC)s3)ccc2O1` [Compound 178, 2,2-diethyl-6-(5-(2-methoxyphenyl)-1,3,4-thiadiazol-2-yl)chroman-4-one], the Emax in experiment [1] is over 75%; in experiment [2], under 75%. In addition, in experiment [1] (setting [3]), the “hS1P1 cAMP pEC50” value is reported as under 6.5. Also, in experiment [2] (setting [4]), the “hS1P1 B-arrestin2 pEC50” value was over 5.

On to `CC(C)n1nnc2cc(-c3nc(-c4ccccc4O)no3)ccc21` [Compound 180, 2-(5-(1-isopropyl-1H-benzo[d][1,2,3]triazol-5-yl)-1,2,4-oxadiazol-3-yl)phenol], for which the “hS1P1 cAMP pEC50” value in experiment [1] (setting [3]) is listed as under 6.5. Besides, the “hS1P1 B-arrestin2 pEC50” value in experiment [2] (setting [4]) is given as under 5.

As for `CC(C)n1nnc2cc(C(=O)Nc3noc4ccccc34)ccc21` [Compound 181, N-(benzo[d]isoxazol-3-yl)-1-isopropyl-1H-benzo[d][1,2,3]triazole-5-carboxamide], the Emax in experiment [1] and in experiment [2] was over 75% in each case. For the same molecule, the “hS1P1 cAMP pEC50” value in experiment [1] (setting [3]) was under 6.5. For the same molecule, the “hS1P1 B-arrestin2 pEC50” value in experiment [2] (setting [4]) is on record as under 5.

For `Cc1ccccc1-c1noc(-c2ccc3c(c2)nnn3CC(F)F)n1` [Compound 182, 1-(2,2-difluoroethyl)-5-[3-(2-methylphenyl)-1,2,4-oxadiazol-5-yl]-1H-1,2,3-benzotriazole], the values for the Emax in experiment [1] and in experiment [2] were over 75% and under 75%, respectively. Further, the “hS1P1 cAMP pEC50” value in experiment [1] (setting [3]) is recorded as over 6.5. Besides, the “hS1P1 B-arrestin2 pEC50” value in experiment [2] (setting [4]) was over 5.

For the molecule `CC(C)n1nnc2cc(-c3nc(-c4ccccc4Br)co3)ccc21` [Compound 183, 5-[4-(2-bromophenyl)-1,3-oxazol-2-yl]-1-(propan-2-yl)-1H-1,2,3-benzotriazole], the Emax in experiment [1] and in experiment [2] was over 75% each time. Besides, the “hS1P1 cAMP pEC50” value in experiment [1] (setting [3]) is reported as over 6.5. For the same molecule, the “hS1P1 B-arrestin2 pEC50” value in experiment [2] (setting [4]) is given as over 5.

Regarding `COc1ccccc1-c1cnc(-c2ccc3c(c2)nnn3C(C)C)s1` [Compound 184, 2-(1-isopropyl-1H-benzo[d][1,2,3]triazol-5-yl)-5-(2-methoxyphenyl)thiazole], the “hS1P1 cAMP pEC50” value in experiment [1] (setting [3]) is reported as under 6.5. Further, the “hS1P1 B-arrestin2 pEC50” value in experiment [2] (setting [4]) was under 5.

Regarding `COCC1(COC)CC(=O)c2cc(-c3nc(-c4cccnc4)no3)ccc2O1` [Compound 186, 2,2-bis(methoxymethyl)-6-[3-(pyridin-3-yl)-1,2,4-oxadiazol-5-yl]-3,4-dihydro-2H-1-benzopyran-4-one], the Emax in experiment [1] and in experiment [2] was under 75% in each case. Besides, the “hS1P1 cAMP pEC50” value in experiment [1] (setting [3]) was under 6.5. Besides, the “hS1P1 B-arrestin2 pEC50” value in experiment [2] (setting [4]) is on record as under 5.

As for `CCC1(CC)CC(=O)c2cc(-c3nc(-c4ccccc4O)no3)ccc2O1` [Compound 187, 2,2-diethyl-6-[3-(2-hydroxyphenyl)-1,2,4-oxadiazol-5-yl]chroman-4-one], the Emax in experiment [1] is under 75%; in experiment [2], over 75%. Further, the “hS1P1 cAMP pEC50” value in experiment [1] (setting [3]) was under 6.5. Moreover, the “hS1P1 B-arrestin2 pEC50” value in experiment [2] (setting [4]) is given as under 5.

On to `CCCCC1(CCCC)CC(=O)c2cc(-c3nc(-c4cccnc4)no3)ccc2O1` [Compound 188, 2,2-dibutyl-6-[3-(pyridin-3-yl)-1,2,4-oxadiazol-5-yl]-3,4-dihydro-2H-1-benzopyran-4-one], for which the Emax in experiment [1] and in experiment [2] was under 75% in each case. For the same molecule, the “hS1P1 cAMP pEC50” value in experiment [1] (setting [3]) is recorded as under 6.5. For the same molecule, the “hS1P1 B-arrestin2 pEC50” value in experiment [2] (setting [4]) is reported as under 5.

For the molecule `C=CCNc1ccc(-c2nc(-c3ccc4[nH]c(=O)oc4c3)no2)cc1C#N` [Compound 189, 2-(allylamino)-5-(3-(2-oxo-2,3-dihydrobenzo[d]oxazol-6-yl)-1,2,4-oxadiazol-5-yl)benzonitrile], the “hS1P1 cAMP pEC50” value in experiment [1] (setting [3]) is recorded as over 6.5. The “hS1P1 B-arrestin2 pEC50” value in experiment [2] (setting [4]) is listed as over 5.

As for `Brc1ccccc1-c1noc(-c2ccc3[nH]nnc3c2)n1` [Compound 190, 5-[3-(2-bromophenyl)-1,2,4-oxadiazol-5-yl]-1H-1,2,3-benzotriazole], the Emax in experiment [1] and in experiment [2] was under 75% each time. Also, in experiment [1] (setting [3]), the “hS1P1 cAMP pEC50” value is recorded as under 6.5. Besides, the “hS1P1 B-arrestin2 pEC50” value in experiment [2] (setting [4]) was under 5.

Take `Cc1ccc(-c2noc(-c3ccc4c(c3)nnn4C3CCCC3)n2)s1` [Compound 192, 1-cyclopentyl-5-[3-(5-methylthiophen-2-yl)-1,2,4-oxadiazol-5-yl]-1H-1,2,3-benzotriazole]: the “hS1P1 cAMP pEC50” value in experiment [1] (setting [3]) is reported as under 6.5. Moreover, in experiment [2] (setting [4]), the “hS1P1 B-arrestin2 pEC50” value is given as under 5.

For the molecule `CCCn1nnc2cc(-c3nc(-c4ccc(C(F)(F)F)c(F)c4)no3)ccc21` [Compound 193, 5-{3-[3-fluoro-4-(trifluoromethyl)phenyl]-1,2,4-oxadiazol-5-yl}-1-propyl-1H-1,2,3-benzotriazole], in experiment [1] (setting [3]), the “hS1P1 cAMP pEC50” value is reported as under 6.5. Further, the “hS1P1 B-arrestin2 pEC50” value in experiment [2] (setting [4]) is under 5.

As to `Cc1ncccc1-c1nc(-c2ccc3c(c2)nnn3C(C)C)no1` [Compound 194, 3-(1-isopropyl-1H-benzo[d][1,2,3]triazol-5-yl)-5-(2-methylpyridin-3-yl)-1,2,4-oxadiazole], the Emax in experiment [1] and in experiment [2] was under 75% each time. Further, the “hS1P1 cAMP pEC50” value in experiment [1] (setting [3]) is under 6.5. In addition, the “hS1P1 B-arrestin2 pEC50” value in experiment [2] (setting [4]) is listed as under 5.

Consider `O=C(O)Cn1nnc2cc(-c3noc(-c4ccccc4Br)n3)ccc21` [Compound 195, 2-(5-(5-(2-bromophenyl)-1,2,4-oxadiazol-3-yl)-1H-benzo[d][1,2,3]triazol-1-yl)acetic acid], for which the Emax in experiment [1] and in experiment [2] was under 75% each time. Besides, the EC50 was over 0.316 µM in experiment [1] (inhibition of cAMP production, S1P1 CHO-K1 cells, read-out: hS1P1 cAMP pEC50 (converted)) and over 10 µM in experiment [2] (β-arrestin2 recruitment, S1P1 CHO-K1 cells, read-out: hS1P1 B-arrestin2 pEC50 (converted)).

For the molecule `COc1ccc(-c2nc(-c3ccc4c(c3)nnn4C3CCCC3)no2)cc1` [Compound 196, 3-(1-cyclopentyl-1H-benzo[d][1,2,3]triazol-5-yl)-5-(4-methoxyphenyl)-1,2,4-oxadiazole], the “hS1P1 cAMP pEC50” value in experiment [1] (setting [3]) is listed as under 6.5. In addition, in experiment [2] (setting [4]), the “hS1P1 B-arrestin2 pEC50” value was under 5.
